Experiments:
Assay type in all cases: cell-based
human PGD receptor = molecular target: T1, human PGD receptor (Homo sapiens, UniProt Q13258); test: cAMP antagonism test on the human prostaglandin D receptor (HTRF cAMP detection); conditions: selectivity towards hDP, IC50 measured by cAMP antagonism test
T1 sequence (Q13258 1-359): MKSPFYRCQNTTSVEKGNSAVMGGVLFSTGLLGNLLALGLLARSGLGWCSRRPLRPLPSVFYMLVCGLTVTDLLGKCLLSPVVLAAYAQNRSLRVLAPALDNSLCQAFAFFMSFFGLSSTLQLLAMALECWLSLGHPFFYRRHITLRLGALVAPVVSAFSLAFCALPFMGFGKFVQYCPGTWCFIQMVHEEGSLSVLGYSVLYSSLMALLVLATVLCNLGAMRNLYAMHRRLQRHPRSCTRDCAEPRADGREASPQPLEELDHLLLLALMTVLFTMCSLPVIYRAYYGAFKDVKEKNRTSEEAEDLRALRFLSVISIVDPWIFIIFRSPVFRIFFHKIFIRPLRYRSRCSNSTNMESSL
Procedure, shortened: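 HTRF competition read-out (665/620 nm ratio ×10000), where higher FRET means less cAMP, i.e. antagonism. Compounds (0.8 nM–16.5 μM) were preincubated 20 min at RT with cells and cAMP-d2, PGD2 (3× solution, 6 nM) in IBMX-containing PBS added for 30 min at RT, then cells lysed 20 min.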

[1] = molecular target: EP4 subtype of the human PGE2 receptor (Homo sapiens, UniProt P35408); test: cAMP antagonism test on the human EP4 receptor (HTRF cAMP detection); conditions: selectivity towards hEP4, IC50 measured by cAMP antagonism test
Procedure, shortened: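 Competitive HTRF cAMP read-out (cAMP-d2 vs Eu-cryptate anti-cAMP antibody, 665/620 nm ratio) on lysed human EP4 cells. Compound (0.8 nM–16.5 μM) applied 20 min at RT before 60 min PGE2 challenge (3× solution 0.3 nM, IBMX present); 20 min lysis precedes reading.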

[2] = molecular target: EP2 subtype of the human PGE2 receptor (Homo sapiens, UniProt P43116); test: cAMP antagonism test on the human EP2 receptor (HTRF cAMP detection); conditions: hEP2 receptor, read-out: Antagonism hEP2 IC50
Procedure, shortened: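 Read-out is a competitive HTRF for cAMP: lysate cAMP displaces cAMP-d2 from Eu cryptate-labelled antibody, and antagonism raises the 665/620 nm ratio. Compound (0.8 nM–16.5 μM) added to EP2 cells 20 min at RT before 60 min PGE2 challenge (3× stock 1.5 nM) with IBMX, followed by 20 min lysis.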

EP4 subtype of the human PGE2 receptor, sequence (P35408 whole entry): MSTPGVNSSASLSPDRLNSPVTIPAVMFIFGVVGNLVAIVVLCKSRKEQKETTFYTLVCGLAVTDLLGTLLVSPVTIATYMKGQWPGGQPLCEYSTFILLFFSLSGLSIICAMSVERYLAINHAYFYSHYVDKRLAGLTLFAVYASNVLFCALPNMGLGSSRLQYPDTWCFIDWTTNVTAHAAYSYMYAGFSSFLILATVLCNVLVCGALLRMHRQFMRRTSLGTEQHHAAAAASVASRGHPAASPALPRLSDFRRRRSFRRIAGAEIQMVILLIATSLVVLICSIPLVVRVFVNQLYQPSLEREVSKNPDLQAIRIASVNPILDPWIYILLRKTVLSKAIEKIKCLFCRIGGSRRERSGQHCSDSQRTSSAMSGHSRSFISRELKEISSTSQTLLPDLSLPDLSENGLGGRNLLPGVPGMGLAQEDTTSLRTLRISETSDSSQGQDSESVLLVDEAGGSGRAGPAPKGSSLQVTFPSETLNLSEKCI
EP2 subtype of the human PGE2 receptor, sequence (P43116 whole entry): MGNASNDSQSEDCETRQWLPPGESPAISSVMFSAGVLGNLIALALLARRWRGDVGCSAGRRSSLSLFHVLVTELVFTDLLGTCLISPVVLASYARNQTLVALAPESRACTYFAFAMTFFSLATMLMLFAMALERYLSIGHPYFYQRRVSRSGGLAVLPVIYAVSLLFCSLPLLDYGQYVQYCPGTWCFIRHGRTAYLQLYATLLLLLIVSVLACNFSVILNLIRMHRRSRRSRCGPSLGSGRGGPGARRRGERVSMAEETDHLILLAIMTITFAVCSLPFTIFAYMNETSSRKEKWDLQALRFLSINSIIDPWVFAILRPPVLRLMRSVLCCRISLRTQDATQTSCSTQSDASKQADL

Cc1c(C(=O)NCC2CCCCO2)ccc2nn(CC3CCN(C(=O)c4ccc(Oc5ccc(C(F)(F)F)cc5)cc4)CC3)cc12 (single isomer, unassigned) [Example 417, (S or R)-4-methyl-N-(3,4,5,6-tetrahydro-2H-pyran-2-ylmethyl)-2-[(1-{4-[4-(trifluoromethyl)phenoxy]benzoyl}piperidin-4-yl)methyl]-2H-indazol-5-carboxamide]
Selectivity hEP2/hDP (human PGD receptor): xxx (xxx > 100)
Selectivity hEP2/hEP4 [1]: xxx (xxx > 100)
IC50 [2]: 9.75 nM

Cc1c(C(=O)NCC2COCCO2)ccc2nn(CC3CCN(C(=O)c4ccc(Oc5ccc(C(F)(F)F)cc5)cc4)CC3)cc12 (single isomer, unassigned) [Example 418, (R or S)—N-(1,4-dioxan-2-ylmethyl)-4-methyl-2-[(1-{4-[4-(trifluoromethyl)-phenoxy]benzoyl}piperidin-4-yl)methyl]-2H-indazol-5-carboxamide]
Selectivity hEP2/hDP (human PGD receptor): xxx (xxx > 100)
Selectivity hEP2/hEP4 [1]: xxx (xxx > 100)
IC50 [2]: 15.8 nM

Cc1c(C(=O)NCC2COCCO2)ccc2nn(CC3CCN(C(=O)c4ccc(Oc5ccc(C(F)(F)F)cc5)cc4)CC3)cc12 (single isomer, unassigned) [Example 419, (R or S)—N-(1,4-dioxan-2-ylmethyl)-4-methyl-2-[(1-{4-[4-(trifluoromethyl)-phenoxy]benzoyl}piperidin-4-yl)methyl]-2H-indazol-5-carboxamide]
Selectivity hEP2/hDP (human PGD receptor): xxx (xxx > 100)
Selectivity hEP2/hEP4 [1]: xxx (xxx > 100)
IC50 [2]: 10.9 nM

COCCNC(=O)c1ccc2nn(CC3CCN(C(=O)c4ccc(C#N)cc4F)CC3)cc2c1C [Example 1, 2-{[1-(4-cyano-2-fluorobenzoyl)piperidin-4-yl]methyl}-N-(2-methoxyethyl)-4-methyl-2H-indazol-5-carboxamide]
Selectivity hEP2/hDP (human PGD receptor): xxx (xxx > 100)
Selectivity hEP2/hEP4 [1]: xxx (xxx > 100)
IC50 [2]: 103 nM

COCCNC(=O)c1ccc2nn(CC3CCN(C(=O)c4ccc(OC(C)(C)C)cc4)CC3)cc2c1C [Example 2, 2-({1-[4-tert-(butoxy)benzoyl]piperidin-4-yl}methyl)-N-(2-methoxyethyl)-4-methyl-2H-indazol-5-carboxamide]
Selectivity hEP2/hDP (human PGD receptor): xxx (xxx > 100)
Selectivity hEP2/hEP4 [1]: xxx (xxx > 100)
IC50 [2]: 21.7 nM

COCCNC(=O)c1ccc2nn(CC3CCN(C(=O)c4ccc(Oc5ccc(F)cc5)cc4)CC3)cc2c1C [Example 3, 2-({1-[4-(4-fluorophenoxy)benzoyl]piperidin-4-yl}methyl)-N-(2-methoxyethyl)-4-methyl-2H-indazol-5-carboxamide]
Selectivity hEP2/hDP (human PGD receptor): xxx (xxx > 100)
Selectivity hEP2/hEP4 [1]: xxx (xxx > 100)
IC50 [2]: 4.91 nM

COCCNC(=O)c1ccc2nn(CC3CCN(C(=O)c4ccc(N5CCOCC5)cc4)CC3)cc2c1C [Example 4, N-(2-methoxyethyl)-4-methyl-2-{[1-(4-morpholinobenzoyl)piperidin-4-yl]methyl}-2H-indazol-5-carboxamide]
Selectivity hEP2/hDP (human PGD receptor): xxx (xxx > 100)
Selectivity hEP2/hEP4 [1]: xxx (xxx > 100)
IC50 [2]: 68.1 nM

COCCNC(=O)c1ccc2nn(CC3CCN(C(=O)c4ccc(S(C)(=O)=O)cc4F)CC3)cc2c1C [Example 6, 2-{[1-(2-fluoro-4-mesylbenzoyl)piperidin-4-yl]methyl}-N-(2-methoxyethyl)-4-methyl-2H-indazol-5-carboxamide]
Selectivity hEP2/hDP (human PGD receptor): xx (xx: 10-100)
Selectivity hEP2/hEP4 [1]: xx (xx: 10-100)
IC50 [2]: 313 nM

COCCNC(=O)c1ccc2nn(CC3CCN(C(=O)c4ccc(OC)cc4F)CC3)cc2c1C [Example 7, 2-{[1-(2-fluoro-4-methoxybenzoyl)piperidin-4-yl]methyl}-N-(2-methoxyethyl)-4-methyl-2H-indazol-5-carboxamide]
Selectivity hEP2/hDP (human PGD receptor): xxx (xxx > 100)
Selectivity hEP2/hEP4 [1]: xxx (xxx > 100)
IC50 [2]: 25.8 nM

COCCNC(=O)c1ccc2nn(CC3CCN(C(=O)c4ccc(Br)cc4F)CC3)cc2c1C [Example 8, 2-{[1-(4-bromo-2-fluorobenzoyl)piperidin-4-yl]methyl}-N-(2-methoxyethyl)-4-methyl-2H-indazol-5-carboxamide]
Selectivity hEP2/hDP (human PGD receptor): xxx (xxx > 100)
Selectivity hEP2/hEP4 [1]: xxx (xxx > 100)
IC50 [2]: 9.37 nM

COCCNC(=O)c1ccc2nn(CC3CCN(C(=O)c4ccc(C)cc4F)CC3)cc2c1C [Example 9, 2-{[1-(2-fluoro-4-methylbenzoyl)piperidin-4-yl]methyl}-N-(2-methoxyethyl)-4-methyl-2H-indazol-5-carboxamide]
Selectivity hEP2/hDP (human PGD receptor): xxx (xxx > 100)
Selectivity hEP2/hEP4 [1]: xxx (xxx > 100)
IC50 [2]: 17.2 nM

COCCNC(=O)c1ccc2nn(CC3CCN(C(=O)c4ccc(C(F)(F)F)cc4F)CC3)cc2c1C [Example 10, 2-({1-[2-fluoro-4-(trifluoromethyl)benzoyl]piperidin-4-yl}methyl)-N-(2-methoxy-ethyl)-4-methyl-2H-indazol-5-carboxamide]
Selectivity hEP2/hDP (human PGD receptor): xxx (xxx > 100)
Selectivity hEP2/hEP4 [1]: xxx (xxx > 100)
IC50 [2]: 8.67 nM

COCCNC(=O)c1ccc2nn(CC3CCN(C(=O)c4ccc(S(F)(F)(F)(F)F)cc4)CC3)cc2c1C [Example 11, N-(2-methoxyethyl)-4-methyl-2-({1-[4-(pentafluoro-λ^6-sulphanyl)benzoyl]piperidin-4-yl}methyl)-2H-indazol-5-carboxamide]
Selectivity hEP2/hDP (human PGD receptor): xxx (xxx > 100)
Selectivity hEP2/hEP4 [1]: xxx (xxx > 100)
IC50 [2]: 8.14 nM

COCCNC(=O)c1ccc2nn(CC3CCN(C(=O)c4ccc(C)cc4)CC3)cc2c1C [Example 12, N-(2-methoxyethyl)-4-methyl-2-{[1-(4-methylbenzoyl)-piperidin-4-yl]-methyl)-2H-indazol-5-carboxamide]
Selectivity hEP2/hDP (human PGD receptor): xxx (xxx > 100)
Selectivity hEP2/hEP4 [1]: xxx (xxx > 100)
IC50 [2]: 20.3 nM

COCCNC(=O)c1ccc2nn(CC3CCN(C(=O)c4cc(-c5ccccc5)no4)CC3)cc2c1C [Example 13, N-(2-methoxyethyl)-4-methyl-2-({1-[(3-phenylisoxazol-5-yl)carbonyl]piperidin-4-yl}methyl)-2H-indazol-5-carboxamide]
Selectivity hEP2/hDP (human PGD receptor): xxx (xxx > 100)
Selectivity hEP2/hEP4 [1]: xxx (xxx > 100)
IC50 [2]: 35.9 nM

COCCNC(=O)c1ccc2nn(CC3CCN(C(=O)c4ccc(Oc5ccc(Cl)cc5)cc4)CC3)cc2c1C [Example 14, 2-({1-[4-(4-chloro-phenoxy)benzoyl]-piperidin-4-yl}-methyl)-N-(2-methoxyethyl)-4-methyl-2H-indazol-5-carboxamide]
Selectivity hEP2/hDP (human PGD receptor): xxx (xxx > 100)
Selectivity hEP2/hEP4 [1]: xxx (xxx > 100)
IC50 [2]: 3.67 nM

COCCNC(=O)c1ccc2nn(CC3CCN(C(=O)c4ccc(Oc5ccc(C)cc5)cc4)CC3)cc2c1C [Example 15, N-(2-methoxyethyl)-4-methyl-2-({1-[4-(4-methylphenoxy)-benzoyl]piperidin-4-yl}methyl)-2H-indazol-5-carboxamide]
Selectivity hEP2/hDP (human PGD receptor): xxx (xxx > 100)
Selectivity hEP2/hEP4 [1]: xxx (xxx > 100)
IC50 [2]: 4.17 nM

COCCNC(=O)c1ccc2nn(CC3CCN(C(=O)c4ccc(Oc5ccc(C(C)(C)C)cc5)cc4)CC3)cc2c1C [Example 16, 2-({1-[4-(4-tert-butylphenoxy)-benzoyl]piperidin-4-yl}methyl)-N-(2-methoxyethyl)-4-methyl-2H-indazol-5-carboxamide]
Selectivity hEP2/hDP (human PGD receptor): xxx (xxx > 100)
Selectivity hEP2/hEP4 [1]: xxx (xxx > 100)
IC50 [2]: 5.85 nM

Source: patent publication US9062041B2 (Bayer Intellectual Property GmbH, priority 2011, dated 2015)
